# Data from patent US10681909B2, “Herbicidal triazoles” (FMC Corporation, priority 2014, dated 2020).
# Experiments:
# [1] = system: crabgrass, large; experiment: Test C postemergence; type: in vivo, Digitaria sanguinalis
# Procedure, shortened: (§1)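 Surfactant-containing, non-phytotoxic solvent formulations of each compound were applied either preemergence to seeds in a loam soil–sand blend or postemergence to plants 2 to 18 cm tall (1- to 4-leaf stage). Postemergence plants were grown in peat moss–vermiculite medium.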
# [2] = system: foxtail, giant; experiment: Test A postemergence; type: in vivo, Setaria faberii; details: Setaria faberi, post-emergence, 240 h, 0 to 100 scale (0 no effect, 100 complete control), approx. 10 d, read-out: Plant response rating, Foxtail, Giant
# Procedure, shortened: (§2)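 Pre- and postemergence spray tests in a loam soil–sand mixture: seeded soil received a directed spray, while established seedlings 2–10 cm high at the one- to two-leaf stage were treated over the top. Compounds were carried in non-phytotoxic solvent with surfactant.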
# [3] = system: corn; experiment: Test C postemergence; type: in vivo, Zea mays
# Procedure, shortened: as §1
# [4] = system: pigweed; experiment: Test A postemergence; type: in vivo, Amaranthus retroflexus; details: Amaranthus retroflexus, post-emergence, 240 h, 0 to 100 scale (0 no effect, 100 complete control), approx. 10 d, read-out: Plant response rating, Pigweed
# Procedure, shortened: as §2
# [5] = system: velvetleaf; experiment: Test C postemergence; type: in vivo, Abutilon theophrasti
# Procedure, shortened: as §1
# [6] = system: soybean; experiment: Test C postemergence; type: in vivo, Glycine max
# Procedure, shortened: as §1
# [7] = system: ragweed; experiment: Test C postemergence; type: in vivo, Ambrosia elatior
# Procedure, shortened: as §1
# [8] = system: foxtail, giant; experiment: Test A preemergence; type: in vivo, Setaria faberii; details: Setaria faberi, pre-emergence, 240 h, 0 to 100 scale (0 no effect, 100 complete control), read-out: Plant response rating, Foxtail, Giant
# Procedure, shortened: as §2
# [9] = system: barnyardgrass; experiment: Test C postemergence; type: in vivo, Echinochloa crus-galli
# Procedure, shortened: as §1
# [10] = system: ducksalad; experiment: Test B flooded paddy test; type: in vivo, Heteranthera limosa; details: Heteranthera limosa, 360 h, 125 g ai/ha, applied to paddy water at 2-leaf stage, visual rating after 13 to 15 d, scale 0 (no effect) to 100 (complete control), read-out: Plant response rating, Ducksalad, Flood
# Procedure, shortened: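 Pots were flooded to 3 cm above the soil at treatment, and compounds were applied directly into the paddy water. That depth was held throughout. After 13 to 15 d in a greenhouse, plants were rated visually against untreated controls.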
# [11] = system: johnsongrass; experiment: Test C postemergence; type: in vivo, Sorghum halepense
# Procedure, shortened: as §1
# [12] = system: pigweed; experiment: Test A preemergence; type: in vivo, Amaranthus retroflexus; details: Amaranthus retroflexus, pre-emergence, 240 h, 0 to 100 scale (0 no effect, 100 complete control), read-out: Plant response rating, Pigweed
# Procedure, shortened: as §2
# [13] = system: waterhemp; experiment: Test C preemergence; type: in vivo, Amaranthus rudis; details: for Waterhemp plant response rating (0 to 100): Preemergence, visual rating after 13 to 15 d
# Text: Seeds of plant species selected from blackgrass (Alopecurus myosuroides), ryegrass, Italian (Italian ryegrass, Lolium multiflorum), wheat (winter wheat, Triticum aestivum), galium (catchweed bedstraw, Galium aparine), corn (Zea mays), crabgrass, large (large crabgrass, Digitaria sanguinalis), foxtail, giant, (giant foxtail, Setaria faberii), johnsongrass (Sorghum halepense), lambsquarters (Chenopodium album), morningglory (Ipomoea coccinea), nutsedge, yellow (yellow nutsedge, Cyperus esculentus), pigweed (Amaranthus retroflexus), ragweed (common ragweed, Ambrosia elatior), soybean (Glycine max), barnyardgrass (Echinochloa crus-galli), oilseed rape (Brassica napus), waterhemp (common waterhemp, Amaranthus rudis), and velvetleaf (Abutilon theophrasti) were planted into a blend of loam soil and sand and treated preemergence with test chemicals formulated in a non-phytotoxic solvent mixture which included a surfactant. At the same time, plants selected from these crop and weed species and also chickweed (common chickweed, Stellaria media), oat, wild (wild oat, Avena fatua), and kochia (Kochia scoparia), were planted in pots containing Sunshine Redi-Earth® planting medium comprising spaghnum peat moss, vermiculite, starter nutrients and dolomitic limestone and treated with postemergence applications of test chemicals formulated in the same manner. Plants ranged in height from 2 to 18 cm (1- to 4-leaf stage) for postemergence treatments. […] A dash (-) response means no test result.
# [14] = system: galium; experiment: Test C postemergence; type: in vivo, Galium aparine
# Procedure, shortened: as §1
compound,measurement,setting,value
"CCOc1nc(-c2ccc(F)cc2)nn1Cc1ccnc(C(F)(F)F)c1 [Compound 8, 4-[[5-ethoxy-3-(4-fluorophenyl)-1H-1,2,4-triazol-1-yl]methyl]-2-(trifluoromethyl)pyridine]",Plant response rating (scale of 0 to 100 where 0 is no effect and 100 is complete control),[1]; 31 g ai/ha,20
same,Plant response rating (scale of 0 to 100 where 0 is no effect and 100 is complete control),[1]; 62 g ai/ha,35
same,Plant response rating (scale of 0 to 100 where 0 is no effect and 100 is complete control),[1]; 125 g ai/ha,70
same,Plant response rating (scale of 0 to 100 where 0 is no effect and 100 is complete control),[1]; 250 g ai/ha,85
same,pest or weed control at 125 g/ha,[2]; 125 g ai/ha,100%
same,pest or weed control at 500 g/ha,[2]; 500 g ai/ha,100%
same,Plant response rating (scale of 0 to 100 where 0 is no effect and 100 is complete control),[3]; 31 g ai/ha,10
same,Plant response rating (scale of 0 to 100 where 0 is no effect and 100 is complete control),[3]; 62 g ai/ha,15
same,Plant response rating (scale of 0 to 100 where 0 is no effect and 100 is complete control),[3]; 125 g ai/ha,25
same,Plant response rating (scale of 0 to 100 where 0 is no effect and 100 is complete control),[3]; 250 g ai/ha,40
same,pest or weed control at 125 g/ha,[4]; 125 g ai/ha,100%
same,pest or weed control at 500 g/ha,[4]; 500 g ai/ha,100%
same,Plant response rating (scale of 0 to 100 where 0 is no effect and 100 is complete control),[5]; 31 g ai/ha,50
same,Plant response rating (scale of 0 to 100 where 0 is no effect and 100 is complete control),[5]; 62 g ai/ha,70
same,Plant response rating (scale of 0 to 100 where 0 is no effect and 100 is complete control),[5]; 125 g ai/ha,90
same,Plant response rating (scale of 0 to 100 where 0 is no effect and 100 is complete control),[5]; 250 g ai/ha,90
same,Plant response rating (scale of 0 to 100 where 0 is no effect and 100 is complete control),[6]; 31 g ai/ha,65
same,Plant response rating (scale of 0 to 100 where 0 is no effect and 100 is complete control),[6]; 62 g ai/ha,75
same,Plant response rating (scale of 0 to 100 where 0 is no effect and 100 is complete control),[6]; 125 g ai/ha,95
same,Plant response rating (scale of 0 to 100 where 0 is no effect and 100 is complete control),[6]; 250 g ai/ha,85
same,Plant response rating (scale of 0 to 100 where 0 is no effect and 100 is complete control),[7]; 31 g ai/ha,45
same,Plant response rating (scale of 0 to 100 where 0 is no effect and 100 is complete control),[7]; 62 g ai/ha,50
same,Plant response rating (scale of 0 to 100 where 0 is no effect and 100 is complete control),[7]; 125 g ai/ha,70
same,Plant response rating (scale of 0 to 100 where 0 is no effect and 100 is complete control),[7]; 250 g ai/ha,80
same,pest or weed control at 125 g/ha,[8]; 125 g ai/ha,100%
same,pest or weed control at 500 g/ha,"[8]; 500 g ai/ha, approx. 10 d",100%
same,Plant response rating (scale of 0 to 100 where 0 is no effect and 100 is complete control),[9]; 31 g ai/ha,10
same,Plant response rating (scale of 0 to 100 where 0 is no effect and 100 is complete control),[9]; 62 g ai/ha,20
same,Plant response rating (scale of 0 to 100 where 0 is no effect and 100 is complete control),[9]; 125 g ai/ha,40
same,Plant response rating (scale of 0 to 100 where 0 is no effect and 100 is complete control),[9]; 250 g ai/ha,75
same,pest or weed control at 125 g/ha,[10],85%
same,Plant response rating (scale of 0 to 100 where 0 is no effect and 100 is complete control),[11]; 31 g ai/ha,5
same,Plant response rating (scale of 0 to 100 where 0 is no effect and 100 is complete control),[11]; 62 g ai/ha,35
same,Plant response rating (scale of 0 to 100 where 0 is no effect and 100 is complete control),[11]; 125 g ai/ha,30
same,Plant response rating (scale of 0 to 100 where 0 is no effect and 100 is complete control),[11]; 250 g ai/ha,40
same,pest or weed control at 125 g/ha,[12]; 125 g ai/ha,100%
same,pest or weed control at 500 g/ha,"[12]; 500 g ai/ha, approx. 10 d",100%
same,Waterhemp plant response rating (0 to 100),[13]; 31 g ai/ha,98
same,Waterhemp plant response rating (0 to 100),[13]; 62 g ai/ha,100
same,Plant response rating (scale of 0 to 100 where 0 is no effect and 100 is complete control),"[13]; Waterhemp, preemergence, 250 g ai/ha",100
same,Plant response rating (scale of 0 to 100 where 0 is no effect and 100 is complete control),[14]; 31 g ai/ha,80
same,Plant response rating (scale of 0 to 100 where 0 is no effect and 100 is complete control),[14]; 62 g ai/ha,95
same,Plant response rating (scale of 0 to 100 where 0 is no effect and 100 is complete control),[14]; 125 g ai/ha,95
same,Plant response rating (scale of 0 to 100 where 0 is no effect and 100 is complete control),[14]; 250 g ai/ha,95
